Measurements: ChEMBL document CHEMBL1201862, “PubChem BioAssay data set” (2004)
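Test compounds were applied to cells in 96-well plates for 48 hours at 5 doses. Here, GI50 denotes the concentration required for 50% inhibition of growth.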 The source made the active and inactive calls. No stated cut-off is given here; in the data, active = GI50 up to about 1.1 µM and inactive = higher.

Key:
Test in all cases: NCI-60 cell line screen, 48 h
A498 = test system: A498
ACHN = test system: ACHN
BT-549 = test system: BT-549
COLO 205 = test system: COLO 205
HCT-15 = test system: HCT-15
HL-60 = test system: HL-60
Hs-578T = test system: Hs-578T
IGROV-1 = test system: IGROV-1
LOX IMVI = test system: LOX IMVI
NCI-H460 = test system: NCI-H460
NCI/ADR-RES = test system: NCI/ADR-RES
OVCAR-3 = test system: OVCAR-3
OVCAR-5 = test system: OVCAR-5
SF-268 = test system: SF-268
SK-MEL-2 = test system: SK-MEL-2
T47D = test system: T47D
TK-10 = test system: TK-10
UACC-257 = test system: UACC-257
UACC-62 = test system: UACC-62

Structure (SMILES) | GI50 (A498) | GI50 (ACHN) | GI50 (BT-549) | GI50 (COLO 205) | GI50 (HCT-15) [µM] | GI50 (HL-60) | GI50 (Hs-578T) | GI50 (IGROV-1) | GI50 (LOX IMVI) | GI50 (NCI-H460) | GI50 (NCI/ADR-RES) | GI50 (OVCAR-3) | GI50 (OVCAR-5) | GI50 (SF-268) | GI50 (SK-MEL-2) | GI50 (T47D) | GI50 (TK-10) | GI50 (UACC-257) | GI50 (UACC-62)
Cc1c([N+](=O)[O-])oc2ccc3ccccc3c12 | 22.8 µM (inactive) | 16.2 µM (inactive) | > 100 µM (inactive) | 6.79 µM (inactive) | 19 | 3.18 µM (inactive) | > 100 µM (inactive) | 12.1 µM (inactive) | 18.5 µM (inactive) | 3.74 µM (inactive) | 33.4 µM (inactive) | > 100 µM (inactive) | > 100 µM (inactive) | 35.7 µM (inactive) | > 100 µM (inactive) | 61.1 µM (inactive) | 37.8 µM (inactive) | 78 µM (inactive) | 56.1 µM (inactive)
Cc1nnc2n1-c1ccccc1N(Cc1ccccc1)CC2 | 93.8 µM (inactive) | 49.5 µM (inactive) | 22.1 µM (inactive) | 38.1 µM (inactive) | 45.7 | 23.6 µM (inactive) | 58.9 µM (inactive) | 50.6 µM (inactive) | 55.8 µM (inactive) | > 100 µM (inactive) | 13.8 µM (inactive) | 39.6 µM (inactive) | > 100 µM (inactive) | 58.9 µM (inactive) | 80.7 µM (inactive) | 41.2 µM (inactive) | 82.6 µM (inactive) | 63.1 µM (inactive) | 39.6 µM (inactive)
CCOC(=O)C1C(c2ccc(OC)cc2)c2c(nn(-c3ccccc3)c2O)CC1(O)OCC (stereo not drawn) | > 100 µM (inactive) | 25.4 µM (inactive) | > 100 µM (inactive) | 36.5 µM (inactive) | 77.4 | 0.47 µM (active) | > 100 µM (inactive) | > 100 µM (inactive) | 0.597 µM (active) | 6.75 µM (inactive) | > 100 µM (inactive) | > 100 µM (inactive) | > 100 µM (inactive) | > 100 µM (inactive) | > 100 µM (inactive) | 12.8 µM (inactive) | > 100 µM (inactive) | 44.6 µM (inactive) | 7.67 µM (inactive)
C=C[C@H]1CN2CCc3c([nH]c4cc(O)ccc34)[C@@H]2C[C@@H]1C[C@H]1c2[nH]c3ccccc3c2CCN1C | 2.16 µM (inactive) | 5.28 µM (inactive) | 13.8 µM (inactive) | 1.77 µM (inactive) | 2.54 | 1.04 µM (active) | 3.53 µM (inactive) | 1.85 µM (inactive) | 4.41 µM (inactive) | 2.07 µM (inactive) | 9.06 µM (inactive) | 4.39 µM (inactive) | 17 µM (inactive) | 6.04 µM (inactive) | 3.21 µM (inactive) | 15.6 µM (inactive) | 8.57 µM (inactive) | 1.95 µM (inactive) | 4.19 µM (inactive)
CCOC(=O)C1C(O)CC2c3ccccc3-c3ccccc3C21 (stereo not drawn) | 20.2 µM (inactive) | 27.3 µM (inactive) | > 100 µM (inactive) | > 100 µM (inactive) | > 100 | > 100 µM (inactive) | 21.3 µM (inactive) | 47.1 µM (inactive) | > 100 µM (inactive) | > 100 µM (inactive) | 40.5 µM (inactive) | > 100 µM (inactive) | > 100 µM (inactive) | 31.4 µM (inactive) | > 100 µM (inactive) | > 100 µM (inactive) | 55.2 µM (inactive) | > 100 µM (inactive) | 44.4 µM (inactive)
COc1ccc(N)c(C(=O)CCNC(C)=O)c1 [KINURENAMINE] | > 100 µM (inactive) | > 100 µM (inactive) | > 100 µM (inactive) | > 100 µM (inactive) | > 100 | > 100 µM (inactive) | > 100 µM (inactive) | > 100 µM (inactive) | > 100 µM (inactive) | > 100 µM (inactive) | > 100 µM (inactive) | > 100 µM (inactive) | > 100 µM (inactive) | > 100 µM (inactive) | > 100 µM (inactive) | > 100 µM (inactive) | > 100 µM (inactive) | > 100 µM (inactive) | > 100 µM (inactive)
CC(=O)O[C@H]1CC[C@@]2(C)C(=CC[C@H]3[C@@H]4CC[C@H](c5cc(C(F)(F)F)n(C(C)=O)n5)[C@@]4(C)CC[C@@H]32)C1 | 10.6 µM (inactive) | 7.8 µM (inactive) | 10.7 µM (inactive) | 3.62 µM (inactive) | 5.64 | 3.5 µM (inactive) | 26.8 µM (inactive) | 3.84 µM (inactive) | 7.4 µM (inactive) | 2.63 µM (inactive) | 4.83 µM (inactive) | 5.77 µM (inactive) | 9.4 µM (inactive) | 24.8 µM (inactive) | 6.93 µM (inactive) | 6.41 µM (inactive) | 5.22 µM (inactive) | 5.52 µM (inactive) | 12 µM (inactive)
